According to US20220054412A1, “TOPICAL FORMULATION AND METHODS FOR […]” (priority 2020, published 2022):

Assay: Use of the topical neuropathy relief formulation by patients (example cases)
Assay type: in vivo, human
Conditions: Patient, severe debilitating neuropathy for six years; medications tried before the formulation; high doses of gabapentin
From the text: The neuropathy relief formulation is applied in an amount sufficient to cover the affected area of clean dry skin. The neuropathy relief formulation is rubbed into the affected area until no cream remains visible on the surface. The formulation can be applied one, two, three or four times per day as needed for relief of symptoms.
The following example cases are from a few of the individuals who have been successfully treated with the claimed formulation

Structure (SMILES) | outcome of earlier medications for neuropathy
NCC1(CC(=O)O)CCCCC1 [gabapentin] | unsuccessful
CCC(=O)C(CC(C)N(C)C)(c1ccccc1)c1ccccc1 (centres unmarked) [methadone] | unsuccessful
